# From ChEMBL document CHEMBL2429768, “Eco-friendly synthesis and antimicrobial activities of substituted-5-(1H-indol-3-yl)methylene)-2,2-dimethyl-1,3-dioxane-4,6-dione derivatives” (2013)
# Legend:
# Assay type in all cases: functional
# Aspergillus niger [1] = assay: Antifungal activity against Aspergillus niger at 200 ug/ml after 72 hrs by agar well diffusion method; details: read-out: DIZ
# Escherichia coli [2] = assay: Antibacterial activity against Escherichia coli ATCC 8739 at 200 ug/ml after 24 hrs by agar well diffusion method; details: ATCC 8739, 24 h, read-out: DIZ
# Klebsiella pneumoniae [3] = assay: Antibacterial activity against Klebsiella pneumoniae at 500 ug/ml after 24 hrs by agar well diffusion method; details: read-out: DIZ
# Fusarium oxysporum [4] = assay: Antifungal activity against Fusarium oxysporum at 100 ug/ml after 72 hrs by agar well diffusion method; details: read-out: DIZ
# Aspergillus niger [5] = assay: Antifungal activity against Aspergillus niger at 100 ug/ml after 72 hrs by agar well diffusion method; details: read-out: DIZ
# Fusarium oxysporum [6] = assay: Antifungal activity against Fusarium oxysporum after 72 hrs by agar well diffusion method
# Aspergillus niger [7] = assay: Antifungal activity against Aspergillus niger at 500 ug/ml after 72 hrs by agar well diffusion method; details: read-out: DIZ
# Aspergillus flavus [8] = assay: Antifungal activity against Aspergillus flavus at 50 ug/ml after 72 hrs by agar well diffusion method; details: read-out: DIZ
# Rhizoctonia solani [9] = assay: Antifungal activity against Rhizoctonia solani at 500 ug/ml after 72 hrs by agar well diffusion method; details: read-out: DIZ
# Staphylococcus aureus [10] = assay: Antibacterial activity against Staphylococcus aureus ATCC 6538 at 50 ug/ml after 24 hrs by agar well diffusion method; details: ATCC 6538, 24 h, read-out: DIZ
# Aspergillus niger [11] = assay: Antifungal activity against Aspergillus niger at 300 ug/ml after 72 hrs by agar well diffusion method; details: read-out: DIZ
# Escherichia coli [12] = assay: Antibacterial activity against Escherichia coli ATCC 8739 at 100 ug/ml after 24 hrs by agar well diffusion method; details: ATCC 8739, 24 h, read-out: DIZ
# Rhizoctonia solani [13] = assay: Antifungal activity against Rhizoctonia solani at 50 ug/ml after 72 hrs by agar well diffusion method; details: read-out: DIZ
# Aspergillus niger [14] = assay: Antifungal activity against Aspergillus niger at 50 ug/ml after 72 hrs by agar well diffusion method; details: read-out: DIZ
# Fusarium oxysporum [15] = assay: Antifungal activity against Fusarium oxysporum at 300 ug/ml after 72 hrs by agar well diffusion method; details: read-out: DIZ
# Rhizoctonia solani [16] = assay: Antifungal activity against Rhizoctonia solani at 200 ug/ml after 72 hrs by agar well diffusion method; details: read-out: DIZ
# Fusarium oxysporum [17] = assay: Antifungal activity against Fusarium oxysporum at 500 ug/ml after 72 hrs by agar well diffusion method; details: read-out: DIZ
# Staphylococcus aureus [18] = assay: Antibacterial activity against Staphylococcus aureus ATCC 6538 at 500 ug/ml after 24 hrs by agar well diffusion method; details: ATCC 6538, 24 h, read-out: DIZ
# Klebsiella pneumoniae [19] = assay: Antibacterial activity against Klebsiella pneumoniae at 300 ug/ml after 24 hrs by agar well diffusion method; details: read-out: DIZ
# Fusarium oxysporum [20] = assay: Antifungal activity against Fusarium oxysporum at 50 ug/ml after 72 hrs by agar well diffusion method; details: read-out: DIZ
# Aspergillus flavus [21] = assay: Antifungal activity against Aspergillus flavus at 200 ug/ml after 72 hrs by agar well diffusion method; details: read-out: DIZ
# Bacillus subtilis [22] = assay: Antibacterial activity against Bacillus subtilis at 300 ug/ml after 24 hrs by agar well diffusion method; details: read-out: DIZ
# Aspergillus niger [23] = assay: Antifungal activity against Aspergillus niger after 72 hrs by agar well diffusion method
# Staphylococcus aureus [24] = assay: Antibacterial activity against Staphylococcus aureus ATCC 6538 at 300 ug/ml after 24 hrs by agar well diffusion method; details: ATCC 6538, 24 h, read-out: DIZ
# Bacillus subtilis [25] = assay: Antibacterial activity against Bacillus subtilis at 500 ug/ml after 24 hrs by agar well diffusion method; details: read-out: DIZ
# Aspergillus flavus [26] = assay: Antifungal activity against Aspergillus flavus after 72 hrs by agar well diffusion method
# Klebsiella pneumoniae [27] = assay: Antibacterial activity against Klebsiella pneumoniae at 100 ug/ml after 24 hrs by agar well diffusion method; details: read-out: DIZ
# Escherichia coli [28] = assay: Antibacterial activity against Escherichia coli ATCC 8739 at 50 ug/ml after 24 hrs by agar well diffusion method; details: ATCC 8739, 24 h, read-out: DIZ
# Rhizoctonia solani [29] = assay: Antifungal activity against Rhizoctonia solani at 300 ug/ml after 72 hrs by agar well diffusion method; details: read-out: DIZ
# Bacillus subtilis [30] = assay: Antibacterial activity against Bacillus subtilis after 24 hrs by agar well diffusion method
# Rhizoctonia solani [31] = assay: Antifungal activity against Rhizoctonia solani after 72 hrs by agar well diffusion method
# Fusarium oxysporum [32] = assay: Antifungal activity against Fusarium oxysporum at 200 ug/ml after 72 hrs by agar well diffusion method; details: read-out: DIZ
# Aspergillus flavus [33] = assay: Antifungal activity against Aspergillus flavus at 300 ug/ml after 72 hrs by agar well diffusion method; details: read-out: DIZ
# Klebsiella pneumoniae [34] = assay: Antibacterial activity against Klebsiella pneumoniae after 24 hrs by agar well diffusion method
# Aspergillus flavus [35] = assay: Antifungal activity against Aspergillus flavus at 500 ug/ml after 72 hrs by agar well diffusion method; details: read-out: DIZ
# Staphylococcus aureus [36] = assay: Antibacterial activity against Staphylococcus aureus ATCC 6538 after 24 hrs by agar well diffusion method; details: ATCC 6538, 24 h
# Aspergillus flavus [37] = assay: Antifungal activity against Aspergillus flavus at 100 ug/ml after 72 hrs by agar well diffusion method; details: read-out: DIZ
# Escherichia coli [38] = assay: Antibacterial activity against Escherichia coli ATCC 8739 at 300 ug/ml after 24 hrs by agar well diffusion method; details: ATCC 8739, 24 h, read-out: DIZ
# Staphylococcus aureus [39] = assay: Antibacterial activity against Staphylococcus aureus ATCC 6538 at 200 ug/ml after 24 hrs by agar well diffusion method; details: ATCC 6538, 24 h, read-out: DIZ
# Bacillus subtilis [40] = assay: Antibacterial activity against Bacillus subtilis at 50 ug/ml after 24 hrs by agar well diffusion method; details: read-out: DIZ
# Rhizoctonia solani [41] = assay: Antifungal activity against Rhizoctonia solani at 100 ug/ml after 72 hrs by agar well diffusion method; details: read-out: DIZ
# Bacillus subtilis [42] = assay: Antibacterial activity against Bacillus subtilis at 200 ug/ml after 24 hrs by agar well diffusion method; details: read-out: DIZ
# Klebsiella pneumoniae [43] = assay: Antibacterial activity against Klebsiella pneumoniae at 50 ug/ml after 24 hrs by agar well diffusion method; details: read-out: DIZ
# Klebsiella pneumoniae [44] = assay: Antibacterial activity against Klebsiella pneumoniae at 200 ug/ml after 24 hrs by agar well diffusion method; details: read-out: DIZ
# Bacillus subtilis [45] = assay: Antibacterial activity against Bacillus subtilis at 100 ug/ml after 24 hrs by agar well diffusion method; details: read-out: DIZ
# Escherichia coli [46] = assay: Antibacterial activity against Escherichia coli ATCC 8739 after 24 hrs by agar well diffusion method; details: ATCC 8739, 24 h
# Escherichia coli [47] = assay: Antibacterial activity against Escherichia coli ATCC 8739 at 500 ug/ml after 24 hrs by agar well diffusion method; details: ATCC 8739, 24 h, read-out: DIZ
# Staphylococcus aureus [48] = assay: Antibacterial activity against Staphylococcus aureus ATCC 6538 at 100 ug/ml after 24 hrs by agar well diffusion method; details: ATCC 6538, 24 h, read-out: DIZ
compound,measurement,setting,value
COc1ccc2[nH]cc(C=C3C(=O)OC(C)(C)OC3=O)c2c1,zone of inhibition at 200 µg/mL,Aspergillus niger [1],15 mm
same,zone of inhibition at 200 µg/mL,Escherichia coli [2],17 mm
same,zone of inhibition at 500 µg/mL,Klebsiella pneumoniae [3],34 mm
same,zone of inhibition at 100 µg/mL,Fusarium oxysporum [4],15 mm
same,zone of inhibition at 100 µg/mL,Aspergillus niger [5],12 mm
same,MIC,Fusarium oxysporum [6],25 µg/mL
same,zone of inhibition at 500 µg/mL,Aspergillus niger [7],24 mm
same,zone of inhibition at 50 µg/mL,Aspergillus flavus [8],5 mm
same,zone of inhibition at 500 µg/mL,Rhizoctonia solani [9],31 mm
same,zone of inhibition at 50 µg/mL,Staphylococcus aureus [10],8 mm
same,zone of inhibition at 300 µg/mL,Aspergillus niger [11],14 mm
same,zone of inhibition at 100 µg/mL,Escherichia coli [12],15 mm
same,zone of inhibition at 50 µg/mL,Rhizoctonia solani [13],10 mm
same,zone of inhibition at 50 µg/mL,Aspergillus niger [14],7 mm
same,zone of inhibition at 300 µg/mL,Fusarium oxysporum [15],24 mm
same,zone of inhibition at 200 µg/mL,Rhizoctonia solani [16],19 mm
same,zone of inhibition at 500 µg/mL,Fusarium oxysporum [17],30 mm
same,zone of inhibition at 500 µg/mL,Staphylococcus aureus [18],28 mm
same,zone of inhibition at 300 µg/mL,Klebsiella pneumoniae [19],25 mm
same,zone of inhibition at 50 µg/mL,Fusarium oxysporum [20],10 mm
same,zone of inhibition at 200 µg/mL,Aspergillus flavus [21],12 mm
same,zone of inhibition at 300 µg/mL,Bacillus subtilis [22],14 mm
same,MIC,Aspergillus niger [23],30 µg/mL
same,zone of inhibition at 300 µg/mL,Staphylococcus aureus [24],18 mm
same,zone of inhibition at 500 µg/mL,Bacillus subtilis [25],22 mm
same,MIC,Aspergillus flavus [26],35 µg/mL
same,zone of inhibition at 100 µg/mL,Klebsiella pneumoniae [27],16 mm
same,zone of inhibition at 50 µg/mL,Escherichia coli [28],10 mm
same,zone of inhibition at 300 µg/mL,Rhizoctonia solani [29],24 mm
same,MIC,Bacillus subtilis [30],20 µg/mL
same,MIC,Rhizoctonia solani [31],25 µg/mL
same,zone of inhibition at 200 µg/mL,Fusarium oxysporum [32],18 mm
same,zone of inhibition at 300 µg/mL,Aspergillus flavus [33],13 mm
same,MIC,Klebsiella pneumoniae [34],10 µg/mL
same,zone of inhibition at 500 µg/mL,Aspergillus flavus [35],22 mm
same,MIC,Staphylococcus aureus [36],20 µg/mL
same,zone of inhibition at 100 µg/mL,Aspergillus flavus [37],9 mm
same,zone of inhibition at 300 µg/mL,Escherichia coli [38],22 mm
same,zone of inhibition at 200 µg/mL,Staphylococcus aureus [39],15 mm
same,zone of inhibition at 50 µg/mL,Bacillus subtilis [40],4 mm
same,zone of inhibition at 100 µg/mL,Rhizoctonia solani [41],15 mm
same,zone of inhibition at 200 µg/mL,Bacillus subtilis [42],11 mm
same,zone of inhibition at 50 µg/mL,Klebsiella pneumoniae [43],11 mm
same,zone of inhibition at 200 µg/mL,Klebsiella pneumoniae [44],20 mm
same,zone of inhibition at 100 µg/mL,Bacillus subtilis [45],9 mm
same,MIC,Escherichia coli [46],10 µg/mL
same,zone of inhibition at 500 µg/mL,Escherichia coli [47],33 mm
same,zone of inhibition at 100 µg/mL,Staphylococcus aureus [48],12 mm
